For this assay, the target named is T1, human cGAS (residues 161-522) (Homo sapiens, UniProt Q8N884).
T1 construct: Recombinantly expressed purified human cGAS (residues 161-522) was used at 25 nM; made in house
As to the kind of experiment: cGAS Activity Assay—Malachite Green. It is filed as biochemical. In outline: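 Coupled malachite-green phosphate detection was used: enzyme and compound in 20 mM TRIS pH 7.5, 5 mM MgCl2, 0.01% BSA with 80 μM ATP, 80 μM GTP and 100 nM ISD DNA, 4 h at RT in the dark.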

[1] abbreviates: cGAS inhibition, 25 nM cGAS, 80 μM ATP, 80 μM GTP, 100 nM ISD, 4 hour at RT, Malachite Green phosphate detection, read-out: IC50 cGAS.

Where two headings read alike, the source gives them in different places.

T1 sequence (Q8N884 161-522): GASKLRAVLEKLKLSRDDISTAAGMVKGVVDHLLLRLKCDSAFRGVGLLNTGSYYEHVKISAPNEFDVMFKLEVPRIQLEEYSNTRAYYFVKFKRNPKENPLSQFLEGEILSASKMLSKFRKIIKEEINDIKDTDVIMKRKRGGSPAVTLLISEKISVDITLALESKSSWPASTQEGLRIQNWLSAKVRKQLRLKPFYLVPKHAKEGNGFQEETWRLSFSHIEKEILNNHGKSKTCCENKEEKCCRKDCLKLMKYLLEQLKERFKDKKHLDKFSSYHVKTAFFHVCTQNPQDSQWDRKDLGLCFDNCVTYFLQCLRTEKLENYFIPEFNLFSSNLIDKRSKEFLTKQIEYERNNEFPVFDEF

In the case of `CCCc1cc(=O)n2nc(NCc3cc(N4CCCCC4)ncc3Cl)nc2[nH]1` [Example 94, 2-[[5-chloro-2-(1-piperidyl)-4-pyridyl]methylamino]-5-propyl-4H-[1,2,4]triazolo[1,5-a]pyrimidin-7-one], the concentration for half-maximal inhibition (IC50) under setting [1] was determined as 2.55 µM.

`CCCc1cc(=O)n2nc(NCc3cc(-c4ccccn4)ccc3Cl)nc2[nH]1` [Example 29, 2-[[2-chloro-5-(2-pyridyl)phen-yl]methylamino]-5-propyl-4H-[1,2,4]triazolo[1,5-a]pyrimidin-7-one] had an IC50 of 0.668 µM.

For the compound `Cn1ccc(-c2ccc(F)c(CNc3nc4[nH]c(C(F)(F)F)cc(=O)n4n3)c2)n1` [Example 20, 2-[[2-fluoro-5-(1-methylpyrazol-3-yl)phenyl]methylamino]-5-(trifluoromethyl)-4H-[1,2,4]-triazolo[1,5-a]pyrimidin-7-one], the IC50 under setting [1] worked out at 1.24 µM.

For the compound `CCCc1cc(=O)n2nc(NCc3cc(-c4cncnc4)ccc3Cl)nc2[nH]1` [Example 36, 2-[(2-chloro-5-pyrimidin-5-yl-phenyl)methylamino]-5-propyl-4H-[1,2,4]triazolo[1,5-a]-pyrimidin-7-one], the IC50 under setting [1] came out at 0.392 µM.

Turning to `CCCc1cc(=O)n2nc(NCc3ccc(OC)cc3F)nc2[nH]1` [Example 6, 2-[(2-fluoro-4-methoxyphenyl)-methylamino]-5-propyl-4H-[1,2,4]triazolo[1,5-a]pyrimidin-7-one], the IC50 under setting [1] was 2.91 µM.

For orientation: IC50 means the concentration at which inhibition is half-maximal.
